Holding throughout (assay): DTP human tumour cell line panel, 48 h
Assay [1] deals with UACC-62 melanoma.
Assay [2] deals with A549 NSCLC.
Assay [3] concerns A498 renal.
For assay [4], the system named is SN12C renal.
Assay [5] concerns MCF7 breast.
In assay [6] the test system is NCI-H522 lung.
Assay [7] deals with CCRF-CEM leukemia.
For assay [8], the system named is HS 578T breast.
Assay [9] concerns DU-145 prostate.
For assay [10], the system named is SF-295 CNS.

“And” between values parts separate entries of the source, which are not always exact repeats. Identical values can stand only once.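 Each compound was tested at five concentrations against cells in 96-well plates for 48 hours. Abbreviation: GI50, concentration required for 50% inhibition of growth. TGI: total growth inhibition.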

11 compounds from PubChem BioAssay (NCI) can be followed below.

A word on the TGI: it is the concentration giving total growth inhibition. Read a low TGI as greater sensitivity of the cells. One may read the GI50 as the concentration that inhibits growth by half.

For the compound `O=C(O)CNC(=O)c1ccccc1O`, the TGI in assay [1], in assay [2], in [3], in assay [4], in [5] and in assay [6] was above 100 µM each time. The TGI in [7], in assay [8], in assay [9] and in [10] was above 100 µM throughout.

As to `C(=N/Nc1ncnc2nc[nH]c12)/c1ccccn1`, the GI50 in [1] is 0.514 µM; in assay [2] it was 1.27 µM; in assay [3], 6.17 µM; in [4], 0.84 µM; in [5], 0.444 µM; in assay [6] it was 0.551 µM. In addition, the GI50 in assay [7] is 0.227 µM; in assay [8], 12.7 µM; in [9] it was 0.596 µM; in assay [10] it was 0.774 µM. The TGI in assay [1] was 3.24 µM; in [2] it was above 100 µM; in assay [3], above 100 µM; in [4], above 65.1 µM; in assay [5] it was above 100 µM; in assay [6], above 100 µM. In addition, the TGI in assay [7] is above 100 µM; in assay [8] it was above 100 µM; in assay [9], above 49.3 µM; in [10] it was 16 µM.

Regarding `Cc1ccc(Cl)cc1Nc1nc(C(F)(F)F)ccc1C(=O)N/N=C/c1c(Cl)cccc1Cl`, the GI50 in [1] was 0.925 µM; in [2], 1.5 µM; in assay [3], 0.929 µM; in assay [4] it was 1.2 µM; in assay [5], 1.74 µM; in assay [6], 1.77 µM. Moreover, the 50% growth inhibitory concentration (GI50) in assay [7] is 0.289 µM; in [8] it was 1.04 µM; in assay [9], 1.21 µM; in [10], 0.556 µM. Further, the concentration for total growth inhibition (TGI) in assay [1] was 4.02 µM; in assay [2], above 100 µM; in [3], 5.61 µM; in [4] it was 12.2 µM; in assay [5] it was above 38.1 µM; in assay [6], 5.98 µM. Moreover, the total growth inhibition concentration (TGI) in assay [7] is 1.56 µM; in [8] it was 6.18 µM; in assay [9], above 100 µM; in [10], 3.61 µM.

On to `CC1(C)CC(=O)C2=C(C1)NC(SSC1=C(C#N)C(c3ccc(Br)cc3)C3=C(CC(C)(C)CC3=O)N1)=C(C#N)C2c1ccc(Br)cc1` (centres undefined), for which the GI50 in assay [1] is 122 µg/mL; in [2], above 150 µg/mL; in assay [3], above 150 µg/mL; in assay [4], 71.2 µg/mL; in assay [5] it was above 150 µg/mL; in [6] it was 30 µg/mL. In addition, the GI50 is 34.3 µg/mL in [7], 43.5 µg/mL in assay [8], above 150 µg/mL in assay [9] and above 150 µg/mL in assay [10]. For the same compound, the concentration for total growth inhibition (TGI) was > 100 µM and 150 µg/mL in assay [1]; > 100 µM and 150 µg/mL in [2]; > 100 µM and 150 µg/mL in [3]; > 100 µM and 150 µg/mL in [4]; 150 µg/mL in assay [5]; > 100 µM and 53.5 µg/mL in assay [6]. The total growth inhibition concentration (TGI) is > 100 µM and 107 µg/mL in [7]; > 100 µM and 150 µg/mL in assay [8]; > 100 µM and 150 µg/mL in assay [9]; > 100 µM and 150 µg/mL in assay [10].

Take `COc1c(OC(C)=O)c(OC(C)=O)cc2c1-c1ccc(OC)c(=O)cc1C(NC(C)=O)CC2` (centres undefined): the total growth inhibition concentration (TGI) in [1] was above 100 µM; in assay [2], above 100 µM; in [3] it was 2.48 µM; in assay [4], above 100 µM; in assay [5], above 100 µM; in assay [6] it was 0.0192 µM. Besides, the TGI in assay [7] is above 100 µM; in [8] it was above 100 µM; in [9] it was above 100 µM; in [10] it was 0.564 µM.

On to `Fc1ccc(-c2ncn(C3CCNCC3)c2-c2ccnc(Oc3ccccc3)n2)cc1`, for which the GI50 was above 25 µM in assay [1]; 20.1 µM in [2]; above 16.1 µM in assay [3]; 18.5 µM in assay [4]; 9.3 µM in assay [5]; above 25 µM in assay [6]. Moreover, the GI50 in assay [7] is above 23.3 µM; in assay [8], above 13.1 µM; in assay [9], above 25 µM; in assay [10], 18.2 µM. Moreover, the total growth inhibition concentration (TGI) in [1], in assay [2], in [3], in [4], in assay [5] and in assay [6] was above 25 µM throughout. The concentration for total growth inhibition (TGI) in [7], in assay [8], in assay [9] and in [10] was above 25 µM throughout.

In the case of `Nc1ncnc2c1c(-c1cccc(OCc3ccccc3)c1)cn2C1CC(CN2CCCC2)C1` (centres undefined), the GI50 in assay [1] was 1.84 µM; in assay [2] it was 0.939 µM; in assay [3] it was 1.72 µM; in [4], 3.09 µM; in [5], 0.141 µM; in [6] it was 1.95 µM. The GI50 in assay [7] was 2.51 µM; in assay [8], 1.6 µM; in assay [9], 4 µM; in [10], 1.9 µM. In addition, the TGI turned out to be 3.78 µM in assay [1]; 7.17 µM in assay [2]; 4.66 µM in assay [3]; 14.5 µM in [4]; 2 µM in assay [5]; 3.73 µM in assay [6]. Besides, the concentration for total growth inhibition (TGI) amounted to 6.66 µM in assay [7], 4.19 µM in assay [8], 16.9 µM in assay [9] and 3.87 µM in assay [10].

As to `CCCn1cc(C2=C(c3cn(C)c4ccccc34)C(=O)NC2=O)c2ccccc21`, the GI50 is 1.63 µM in assay [1]; 1.86 µM in [2]; 0.837 µM in assay [3]; 2.43 µM in assay [4]; 0.565 µM in assay [5]; 0.467 µM in [6]. Besides, the GI50 in assay [7] was 0.79 µM; in assay [8], 0.766 µM; in assay [9] it was 1.34 µM; in assay [10], 0.715 µM. Further, the TGI in assay [1] is 5.94 µM; in assay [2] it was above 25 µM; in assay [3], 4.77 µM; in assay [4], 6.47 µM; in [5] it was above 16.2 µM; in assay [6] it was 4.58 µM. In addition, the TGI was above 11.2 µM in assay [7], 16 µM in assay [8], above 22.4 µM in assay [9] and 3.15 µM in assay [10].

For `COc1ccc2nc3cccc([N+](=O)[O-])c3c(NCCN(CCO)CCO)c2c1`, the 50% growth inhibitory concentration (GI50) in [1] is 0.0311 µM; in assay [2], 0.0257 µM; in assay [3] it was 0.022 µM; in assay [4], 0.0486 µM; in assay [5], 0.0138 µM; in assay [7], 0.0326 µM. The GI50 in [8] is 0.0647 µM; in assay [9], 0.014 µM; in assay [10], 0.0304 µM. The TGI is 0.109 µM in assay [1]; 0.403 µM in [2]; 0.0524 µM in assay [3]; 0.443 µM in assay [4]; 0.548 µM in [5]; 0.018 µM in assay [6]. The TGI is 0.247 µM in [7], 0.272 µM in assay [8], 0.717 µM in [9] and 0.337 µM in [10].

Consider `O=C(CSc1nc2ccc([N+](=O)[O-])cc2[nH]1)Nc1cccc(Cl)c1`, for which the GI50 in assay [1] is 1.59 µM; in assay [2] it was 2.72 µM; in [3], 1.43 µM; in [4] it was 2.46 µM; in assay [5] it was 2.41 µM; in assay [6], 1.87 µM. The GI50 in [7] was 3.1 µM; in [8] it was 2.95 µM; in assay [9], 3.68 µM; in assay [10], 2.07 µM. Besides, the TGI was 10.3 µM in [1]; 15.9 µM in assay [2]; 4.16 µM in [3]; 10.8 µM in [4]; 10.5 µM in assay [5]; 8.9 µM in assay [6]. Moreover, the TGI was above 100 µM in [7], 19.4 µM in [8], 18.4 µM in [9] and 6.8 µM in [10].

Take `CCCN(CCC)c1ccc(C=O)cc1`: the GI50 in assay [1] was 42.8 µM; in assay [2] it was above 100 µM; in assay [3], 1.81 µM; in assay [4], above 96.2 µM; in assay [5], 36 µM; in [6] it was 28 µM. Moreover, the GI50 in assay [7] was 30.2 µM; in assay [8], above 62.1 µM; in [9], 46.7 µM; in assay [10], 34.2 µM. Besides, the TGI in [1] was above 100 µM; in [2], above 100 µM; in assay [3] it was 4.15 µM; in assay [4], above 100 µM; in assay [5], above 100 µM; in assay [6], above 100 µM. The total growth inhibition concentration (TGI) in [7], in assay [8], in assay [9] and in [10] was above 100 µM in each case.
